From ChEMBL document CHEMBL1130009 (J Med Chem, 1997)

Tests used:
D(4) dopamine receptor = target: T1, D(4) dopamine receptor (Homo sapiens, UniProt P21917); experiment: Binding affinity on human Dopamine receptor D4 expressed in CHO cells using radioligand [3H]-YM 09151; type: cell-based
T1 sequence (P21917 whole entry): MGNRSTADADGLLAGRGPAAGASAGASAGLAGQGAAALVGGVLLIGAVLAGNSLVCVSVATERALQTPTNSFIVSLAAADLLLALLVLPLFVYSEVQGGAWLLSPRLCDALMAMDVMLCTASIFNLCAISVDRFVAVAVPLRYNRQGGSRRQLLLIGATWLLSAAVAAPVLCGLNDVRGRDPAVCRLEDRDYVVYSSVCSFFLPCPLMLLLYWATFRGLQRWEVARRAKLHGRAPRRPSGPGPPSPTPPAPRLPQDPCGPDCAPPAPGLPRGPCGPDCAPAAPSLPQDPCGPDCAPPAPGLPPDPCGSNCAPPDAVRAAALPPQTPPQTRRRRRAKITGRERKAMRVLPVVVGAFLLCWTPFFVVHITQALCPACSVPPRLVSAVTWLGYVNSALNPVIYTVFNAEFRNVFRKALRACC

D(3) dopamine receptor = D(3) dopamine receptor (Homo sapiens, UniProt P35462); experiment: Binding affinity on human Dopamine receptor D3 expressed in CHO cells using radioligand [3H]-YM 09151; type: cell-based
[1] = target: T2, 5-hydroxytryptamine receptor 1A (Homo sapiens, UniProt P08908); experiment: Binding affinity against 5-hydroxytryptamine 1A receptor
T2 sequence (P08908 whole entry): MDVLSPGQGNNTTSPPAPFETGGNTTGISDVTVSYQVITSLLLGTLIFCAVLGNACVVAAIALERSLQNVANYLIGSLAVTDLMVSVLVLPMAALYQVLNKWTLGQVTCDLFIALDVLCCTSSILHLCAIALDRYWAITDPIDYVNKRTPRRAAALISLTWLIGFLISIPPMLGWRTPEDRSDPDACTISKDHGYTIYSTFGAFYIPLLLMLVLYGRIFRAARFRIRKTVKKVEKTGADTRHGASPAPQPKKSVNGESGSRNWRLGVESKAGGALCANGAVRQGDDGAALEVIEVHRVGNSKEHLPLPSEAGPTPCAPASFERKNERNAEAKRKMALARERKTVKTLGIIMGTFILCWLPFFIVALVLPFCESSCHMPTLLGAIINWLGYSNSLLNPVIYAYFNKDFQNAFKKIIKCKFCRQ

Chain of D(3) dopamine receptor (P35462 whole entry): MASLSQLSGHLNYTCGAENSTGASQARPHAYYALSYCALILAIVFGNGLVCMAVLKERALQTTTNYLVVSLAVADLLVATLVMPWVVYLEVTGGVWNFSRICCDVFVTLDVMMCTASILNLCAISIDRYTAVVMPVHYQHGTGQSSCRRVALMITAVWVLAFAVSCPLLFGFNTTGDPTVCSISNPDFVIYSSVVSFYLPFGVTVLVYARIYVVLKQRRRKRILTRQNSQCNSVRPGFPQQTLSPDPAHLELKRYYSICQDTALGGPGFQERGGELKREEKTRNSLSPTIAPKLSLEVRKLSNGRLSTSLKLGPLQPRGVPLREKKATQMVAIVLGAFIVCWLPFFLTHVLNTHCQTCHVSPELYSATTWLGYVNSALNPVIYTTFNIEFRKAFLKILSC

| Structure (SMILES) | Ki (D(4) dopamine receptor) [nM] | Ki (D(3) dopamine receptor) [nM] | Ki [1] [nM] |
| --- | --- | --- | --- |
| c1ccc(-c2nc(CN3CCN(c4ccncn4)CC3)c[nH]2)cc1 | 1400 | > 8000 | – |
| c1ccc(-c2ncc(CN3CCN(c4ncccn4)CC3)[nH]2)cc1 | 3.8 | > 8000 | 181 |
| c1ccc(-c2nc(CN3CCN(c4ccccc4)CC3)c[nH]2)cc1 | 5.2 | 193 | – |
| c1ccc(-c2ncc(CN3CCN(c4ccncc4)CC3)[nH]2)cc1 | > 7300 | > 8000 | – |
| c1ccc(-c2nc(CN3CCN(c4cccnc4)CC3)c[nH]2)cc1 | 73 | – | – |
| Cc1nc(-c2ccccc2)[nH]c1CN1CCN(c2ncccn2)CC1 | 6 | 2980 | – |
| c1ccc(-c2nc(CN3CCN(c4cnccn4)CC3)c[nH]2)cc1 | 50 | > 6660 | – |
| c1ccc(-c2ncc(CN3CCN(c4ccccn4)CC3)[nH]2)cc1 | 8.5 | 1530 | – |
